Results on 17 compounds are retold here after patent US10344032B2, “Agents for treating neurogenic inflammation and neuropathic hyperalgesia related disorders” (PÉCSI TUDOMÁNYEGYETEM, priority 2014, dated 2019).

SMILES strings stand for the structures. Structures can show the parent of a compound that is named as a salt.

The first data set deals with T1, sst4 receptor (Homo sapiens, UniProt P31391).
T1 construct: expressed in transfected cells
T1 sequence (P31391 whole entry): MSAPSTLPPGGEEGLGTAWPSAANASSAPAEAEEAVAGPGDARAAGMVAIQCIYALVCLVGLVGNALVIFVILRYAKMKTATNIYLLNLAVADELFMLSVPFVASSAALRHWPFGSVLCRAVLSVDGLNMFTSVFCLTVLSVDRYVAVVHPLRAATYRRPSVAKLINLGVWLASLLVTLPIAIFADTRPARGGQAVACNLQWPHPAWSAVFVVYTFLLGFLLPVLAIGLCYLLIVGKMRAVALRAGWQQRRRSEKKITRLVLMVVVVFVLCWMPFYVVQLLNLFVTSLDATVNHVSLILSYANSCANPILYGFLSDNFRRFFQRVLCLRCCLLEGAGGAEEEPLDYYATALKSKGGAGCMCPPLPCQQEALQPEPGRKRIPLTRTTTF
The data set can be described thus: Somatostatin sst4 receptor-coupled G-protein activation assay ([35S]GTPγS binding). It counts as biochemical. To be noted: 100 nM concentration; membrane fractions of CHO cells stably expressing the sst4 receptor; percentage over specific binding in absence of agonists. The source says:
[^35S]GTPγS binding assay is a functional test determining agonist-induced and receptor-mediated G-protein activation which is based on the increase in guanine nucleotide exchange at G-proteins upon agonist stimulation. The interaction of a G protein-coupled receptor (GPCR) with the G protein is the first step in the transduction of the receptor binding signal to the activation of the second-messenger systems. We measured the level of [^35S]-GTPγS bound to the α subunit of G proteins and determined the efficacy of the compounds. Compounds which elicited 200% [^35S]GTPγS binding in nanomolar concentration were considered effective agonist. The examined compounds were added into the medium in 1 nM, 10 nM, 100 nM 1 μM and 10 μM concentrations.
Membrane fractions were prepared from CHO cells stably expressing the sst4 receptor in Tris-EGTA buffer (50 mM Tris-HCl, 1 mM EGTA, 3 mM MgCl2, 100 mM NaCl, pH 7.4). These membrane fractions (˜10 μg of protein/sample) were incubated at 30° C. for 60 min in the same Tris-EGTA buffer containing [^35S]GTPγS (0.05 nM) and increasing concentrations (10^−9 to 10^−5 M) of test compounds in the presence of 30 μM GDP in a final volume of 500 μl. Non-specific binding was determined in the presence of 10 μM unlabelled GTPγS. Total binding was measured in the absence of test compounds. To calculate the specific binding, non-specific binding was subtracted from total binding. The reaction was terminated by filtrating the samples through Whatman GF/B glass fiber filters. Using 48-well Slot Blot Manifold from Cleaver Scientific filters were washed three times with ice-cold 50 mM Tris-HCl buffer (pH 7.4). After drying for 60 min at 37° C., radioactivity was measured in scintillation liquid in a Packard Tri-Carb 2800 TR scintillation counter. Test compound-induced G-protein stimulation was given as percentage over the specific [^35S]GTPγS binding observed in the absence of agonists.
On to `COc1cccc(CCNc2ncnc3c2c(C)c(C)n3Cc2ccccc2)c1` [Example 40, (7-Benzyl-5,6-dimethyl-7H-pyrrolo[2,3-d]pyrimidin-4-yl)-[2-(3-methoxy-phenyl)-ethyl]-amine], for which the “[35S]GTPγS binding (G-protein activation)” value is reported as 202.67%. Still for that read-out and setting: then `COc1ccc(CCNc2ncnc3c2c(C)c(C)n3CCCN(C)C)cc1` [Example 41, [7-(3-Dimethylamino-propyl)-5,6-dimethyl-7H-pyrrolo[2,3-d]pyrimidin-4-yl]-[2-(4-methoxy-phenyl)-ethyl]-amine], with 207.67%. Still for that read-out and setting: then `COc1ccc(CCNc2ncnc3c2c(C)c(C)n3Cc2ccccc2)cc1` [Example 2, (7-Benzyl-5,6-dimethyl-7H-pyrrolo[2,3-d]pyrimidin-4-yl)-[2-(4-methoxy-phenyl)-ethyl]-amine], with 245.67%.

Tested on in the next data set: not given
Test: not given
Conditions: not given
A word on the melting point: it is the temperature, or range, at which the solid turns liquid. As for `COc1cccc(CCNc2ncnc3c2c(C)c(C)n3Cc2ccccc2)c1` [Example 40, (7-Benzyl-5,6-dimethyl-7H-pyrrolo[2,3-d]pyrimidin-4-yl)-[2-(3-methoxy-phenyl)-ethyl]-amine], the melting point is 185 to 187.2 °C.

`COc1ccc(CCNc2ncnc3c2c(C)c(C)n3Cc2ccccc2)cc1` [Example 2, (7-Benzyl-5,6-dimethyl-7H-pyrrolo[2,3-d]pyrimidin-4-yl)-[2-(4-methoxy-phenyl)-ethyl]-amine] displayed a melting point of 100 to 101.9 °C. For `Nc1ccc(CCNc2ncnc3c2ccn3Cc2ccccc2)cc1` [Example 8, [2-(4-Amino-phenyl)-ethyl]-(7-benzyl-7H-pyrrolo[2,3-d]pyrimidin-4-yl)-amine], the melting point is more than 260 °C. The compound `Cc1c(C)n(Cc2ccccc2)c2ncnc(NCCc3ccccc3Cl)c12` [Example 42, (7-Benzyl-5,6-dimethyl-7H-pyrrolo[2,3-d]pyrimidin-4-yl)-[2-(2-chloro-phenyl)-ethyl]-amine] yielded a melting point of 223 to 227 °C. Still for that read-out and setting: then `Nc1ccc(CCNc2ncnc3c2ccn3Cc2cncc(Br)c2)cc1` [Example 11, [2-(4-Amino-phenyl)-ethyl]-[7-(5-bromo-pyridin-3-ylmethyl)-7H-pyrrolo[2,3-d]pyrimidin-4-yl]-amine], with 158.8 to 160.9 °C; and `Cc1c(C)n(CCCN(C)C)c2ncnc(NCCc3cccc(F)c3)c12` (as salt: salt) [Example 17, [7-(3-Dimethylamino-propyl)-5,6-dimethyl-7H-pyrrolo[2,3-d]pyrimidin-4-yl]-[2-(3-fluoro-phenyl)-ethyl]-amine], with 239 to 240.2 °C.

With `Cc1c(C)n(Cc2cccc(Cl)c2)c2ncnc(NCCc3ccccc3Cl)c12` [Example 21, [7-(3-Chloro-benzyl)-5,6-dimethyl-7H-pyrrolo[2,3-d]pyrimidin-4-yl]-[2-(2-chloro-phenyl)-ethyl]-amine], the melting point lay in the range of 190 to 192 °C.

In turn, `Cc1c(C)n(Cc2ccccc2)c2ncnc(NCCc3ccc(NC(=O)c4ccc(Cl)cc4)cc3)c12` [Example 49, N-{4-[2-(7-Benzyl-5,6-dimethyl-7H-pyrrolo[2,3-d]pyrimidin-4-ylamino)-ethyl]-phenyl}-4-chloro-benzamide] registered a melting point of more than 270 °C. The same measure, in the same setting: then `COc1ccc(CCN(C)c2ncnc3c2c(C)c(C)n3Cc2cccc(Cl)c2)cc1OC` [Example 22, [7-(3-Chloro-benzyl)-5,6-dimethyl-7H-pyrrolo[2,3-d]pyrimidin-4-yl]-[2-(3,4-dimethoxy-phenyl)-ethyl]-methyl-amine], with 178 to 180 °C; and `Cc1c(C)n(Cc2cccc(Cl)c2)c2ncnc(NCCc3ccc(NS(C)(=O)=O)cc3)c12` [Example 55, N-(4-{2-[7-(3-Chloro-benzyl)-5,6-dimethyl-7H-pyrrolo[2,3-d]pyrimidin-4-ylamino]-ethyl}-phenyl)-methanesulfonamide], with 125 to 129 °C. Regarding `CCN(CC)C(=O)Nc1ccc(CCNc2ncnc3c2c(C)c(C)n3Cc2cccc(Cl)c2)cc1` [Example 52, 3-(4-{2-[7-(3-Chloro-benzyl)-5,6-dimethyl-7H-pyrrolo[2,3-d]pyrimidin-4-ylamino]-ethyl}-phenyl)-1,1-diethyl-urea], the melting point lay in the range of 112.9 to 113.3 °C.

In the case of `CC(=O)Nc1ccc(CCNc2ncnc3c2c(C)c(C)n3Cc2cccc(Cl)c2)cc1` [Example 45, N-(4-{2-[7-(3-Chloro-benzyl)-5,6-dimethyl-7H-pyrrolo[2,3-d]pyrimidin-4-ylamino]-ethyl}-phenyl)-acetamide], the melting point is 186.1 to 187.2 °C.

The compound `Cc1c(C)n(Cc2ccccc2)c2ncnc(NCCc3ccc(NC(=O)Nc4cccc(C(F)(F)F)c4)cc3)c12` [Example 57, 1-{4-[2-(7-Benzyl-5,6-dimethyl-7H-pyrrolo[2,3-d]pyrimidin-4-ylamino)-ethyl]-phenyl}-3-(3-trifluoromethyl-phenyl)-urea] returned a melting point of 161.9 to 162.9 °C. In the case of `Clc1ccccc1CCNc1ncnc2c1ccn2Cc1ccccc1` [Example 25, (7-Benzyl-7H-pyrrolo[2,3-d]pyrimidin-4-yl)-[2-(2-chloro-phenyl)-ethyl]-amine], the melting point is 180 to 182.3 °C. `COc1ccc(CCNc2ncnc3c2c(C)c(C)n3CCCN(C)C)cc1` (as salt: salt) [Example 41, [7-(3-Dimethylamino-propyl)-5,6-dimethyl-7H-pyrrolo[2,3-d]pyrimidin-4-yl]-[2-(4-methoxy-phenyl)-ethyl]-amine] gave a melting point of more than 250 °C. In turn, `Cc1c(C)n(Cc2ccccc2)c2ncnc(NCCc3ccc(NS(=O)(=O)c4ccc(F)cc4F)cc3)c12` [Example 54, N-{4-[2-(7-Benzyl-5,6-dimethyl-7H-pyrrolo[2,3-d]pyrimidin-4-ylamino)-ethyl]-phenyl}-2,4-difluoro-benzenesulfonamide] registered a melting point of 183 to 185 °C.

Another data set concerns sensory nerve terminals of isolated rat tracheae. The data set can be described thus: Electrical field stimulation-induced release of CGRP from sensory nerve terminals of isolated rat tracheae. To be noted: 500 nM; absolute release = stimulated + post-stimulated fractions minus basal release. As to the method:
Rats were exsanguinated in deep anaesthesia (sodium thiopental, 50 mg/kg i.p.), then the whole trachea was removed and cleaned of fat and adhering connective tissues. Tracheae from two rats were placed into the same 1.8 ml organ bath to obtain sufficient amount of released peptide and perfused (1 ml/min) with pH—(7.2) controlled oxygenized Krebs solution for 60 minutes (equilibration period) at 37° C. temperature. After discontinuation of the flow, the solution was changed three times for 8 minutes to produce pre-stimulated, stimulated, post-stimulated fractions. Electrical field stimulation (40 V, 0.1 ms, 10 Hz for 120 s; 1200 pulses) was performed to elicit neurotransmitter release at the beginning of the second 8-minute period. […]
CGRP concentration was determined from 400-400 μl samples of the organ bath solutions by means of a selective and sensitive radioimmunoassay method developed in our laboratories and described in details in several previous papers (Nemeth et al. 1998, 1999, 2006; Helyes et al., 1997, 2001, 2006; Borzsei et al., 2008). The released amount of the peptides was calculated as fmol peptide per mg wet tissue (trachea). The absolute EFS-induced CGRP outflow in each experiment was calculated by taking off the basal release measured in the first (pre-stimulated) fraction from the second and third 8-min fractions and then adding these values. […]
On to `COc1ccc(CCNc2ncnc3c2c(C)c(C)n3Cc2ccccc2)cc1` [Example 2, (7-Benzyl-5,6-dimethyl-7H-pyrrolo[2,3-d]pyrimidin-4-yl)-[2-(4-methoxy-phenyl)-ethyl]-amine], for which the “inhibition on the absolute CGRP release” value was 72.5%.
